The Deep4Chem optical property database

Assay: solvent given as SMILES

## Cc1cc(N2c3ccccc3C3(c4ccccc4-c4ccccc43)c3ccccc32)c(C)cc1-c1nc(-c2ccccc2)nc(-c2ccccc2)n1
In Cc1ccccc1
  emission maximum: 486 nm

## Cc1ccc2nc(/C=C/c3ccc(N(C)C)cc3)c(-c3ccccc3)nc2c1
In C1COCCO1
  emission maximum: 528 nm
In CC#N
  emission maximum: 614 nm
In ClCCl
  emission maximum: 571 nm

## Oc1ccc2ccccc2c1-c1nc(-c2ccccc2)c2ccccn12
In C1CCCCC1
  emission maximum: 407 nm
In CC#N
  emission maximum: 435 nm
In CO
  emission maximum: 433 nm
In ClCCl
  emission maximum: 467 nm
In O
  emission maximum: 440 nm

## O=S1(=O)c2ccccc2-c2cc(-n3c4ccccc4c4cc(-c5ccc6c(c5)c5ccccc5n6-c5ccccc5)ccc43)ccc21
In O=P(c1ccccc1)(c1ccccc1)c1ccccc1Oc1ccccc1P(=O)(c1ccccc1)c1ccccc1
  emission maximum: 462.73 nm

## Brc1ccc(-c2pc3ccccc3s2)cc1 (stereo not drawn)
In CC#N
  emission maximum: 439 nm

## COc1ccc2cc(C#N)c(=N)oc2c1
In ClCCl
  emission maximum: 387 nm

## COc1ccc(/C=C/c2ncc(-c3ccccc3)o2)cc1OC
In ClCCl
  emission maximum: 420 nm

## O=C1O/C(=C\c2cccs2)c2ccccc21
In CC#N
  emission maximum: 438 nm

## CC1(C)c2cccc(-c3nc(-c4ccccc4)nc(-c4ccccc4)n3)c2Oc2c(-n3c4ccccc4c4ccccc43)cccc21
In C1CCCCC1
  emission maximum: 395 nm
In CC(C)=O
  emission maximum: 469 nm
In Cc1ccccc1
  emission maximum: 419 nm
In ClC(Cl)Cl
  emission maximum: 454 nm

## Cc1ccc(C2CC(=O)Oc3c2c2nc4ccc(C)cc4nc2c2ccccc32)cc1 (stereo not drawn)
In ClC(Cl)Cl
  emission maximum: 442 nm

## CC(C)(C)NC(=O)c1ccc(F)c2ccc3c4ccccc4c4ccccc4c3c12
In ClCCl
  emission maximum: 405 nm

## CCCCCCCCCCCCCCCCCCOC(=O)/C=C/C1=CC2=C(c3c(C)cc(C)cc3C)c3cccn3[B-](F)(F)[N+]2=C1
In ClCCl
  emission maximum: 569 nm

## CN(C)c1ccc(-c2cc3ccc([N+](=O)[O-])cc3c(=O)o2)cc1
In CC(C)=O
  emission maximum: 682 nm
In CCCCO
  emission maximum: 559 nm
In CCOC(C)=O
  emission maximum: 621 nm
In CN(C)C=O
  emission maximum: 605 nm
In CO
  emission maximum: 605 nm
In ClC(Cl)Cl
  emission maximum: 652 nm

## CCCC1(CCC)c2cc(-c3ccc4c(c3)C(CCC)(CCC)c3cc(C(C)(C)CC)ccc3-4)ccc2-c2ccc(-c3ccc4c(c3)C(CCC)(CCC)c3cc(C(C)(C)CC)ccc3-4)cc21
In C1CCCCC1
  emission maximum: 400 nm

## CCC1(CC)c2cc(/C=C/c3ccc(/C=C/c4ccc5c(c4)C(CC)(CC)c4cc(N6c7ccccc7Sc7ccccc76)ccc4-5)cc3)ccc2-c2ccc(N3c4ccccc4Sc4ccccc43)cc21
In C1CCOC1
  emission maximum: 434 nm
In CC#N
  emission maximum: 457 nm
In CCCCCC
  emission maximum: 455 nm
In Cc1ccccc1
  emission maximum: 462 nm
In ClCCl
  emission maximum: 435 nm

## Nc1nc2ccccc2[n+]([O-])n1
In CC#N
  emission maximum: 478 nm
In O
  emission maximum: 521 nm

## COc1ccccc1-c1c2ccc(=[N+]3CCCCC3)cc-2oc2cc(N3CCCCC3)ccc12
In CCO
  emission maximum: 586 nm
In ClCCl
  emission maximum: 585 nm

## COc1ccc(-c2oc3cccc4c5c(-c6ccc(OC)c(OC)c6)/c(=N/S(=O)(=O)C(F)(F)F)oc6cccc(c2c34)c65)cc1OC
In ClC(Cl)Cl
  emission maximum: 613 nm

## CCOc1ccc2c(-c3nc(-c4ccccc4)no3)cc(=O)oc2c1
In CCO
  emission maximum: 468 nm
In ClC(Cl)Cl
  emission maximum: 454 nm

## CCCCCCCCCCCCN1C(=O)c2c(c3ccc4cc(-c5ccc(Cl)cc5)c(OC)cc4c3c3c2ccc2cc(-c4ccc(Cl)cc4)c(OC)cc23)C1=O
In ClCCl
  emission maximum: 526 nm

## CCN(CC)c1ccc2cc(C#N)/c(=N\C(=O)c3ccc(C)cc3)oc2c1
In CCO
  emission maximum: 530 nm
In ClCCl
  emission maximum: 502 nm

## CC[N+]1(CC)CN2C(=N1)C(C(=O)O)=Cc1c(OC)ccc(OC)c12
In O
  emission maximum: 515 nm

## C[Si]1(C)O[Si](C)(C)c2cc3cc4c(cc3cc21)C(=O)c1cc2cc3c(cc2cc1C4=O)[Si](C)(C)O[Si]3(C)C
In ClC(Cl)Cl
  emission maximum: 437 nm

## O=C1NC(=O)c2c1c1c3ccccc3[nH]c1c1[nH]c3ccccc3c21
In C1CCOC1
  emission maximum: 475 nm
In CC#N
  emission maximum: 500 nm
In CC(C)OC(C)C
  emission maximum: 450 nm
In CCCCOCCCC
  emission maximum: 461 nm
In CCO
  emission maximum: 550 nm
In CCOC(C)=O
  emission maximum: 473 nm
In CN(C)C=O
  emission maximum: 503 nm
In Cc1ccccc1
  emission maximum: 465 nm
In ClCCl
  emission maximum: 492 nm

## c1ccc(-n2nc(-c3ccc(-c4ccc5c(c4)C(c4ccccc4)(c4ccccc4)c4ccccc4-5)cc3)nc2-c2ccccn2)cc1
In ClCCl
  emission maximum: 358 nm

## COc1cc2oc(=O)c3c4ccc(C=O)cc4c4ccc5cccc6c(c1)c2c3c4c56
In C1CCOC1
  emission maximum: 442 nm

## COc1ccc2c3c(c4ccc(OC)cc4c2c1)C(C)(C)c1ccc2ccccc2c1-3
In C1CCCCC1
  emission maximum: 396 nm

## CCC1=C(C)C2=Cc3cccn3[B-](F)(F)[N+]2=C1C
In C1CCCCC1
  emission maximum: 517.5 nm
In CC(C)=O
  emission maximum: 516 nm
In CCO
  emission maximum: 517 nm
In CCOC(C)=O
  emission maximum: 516.5 nm
In CO
  emission maximum: 516.5 nm
In OCC(F)(F)F
  emission maximum: 515.5 nm

## COc1ccc(-c2ccc3c(c2)nnn3C[C@H](N)C(=O)O)cc1
In CO
  emission maximum: 418 nm

## COC(=O)COc1ccc(/C=C/C2=[N+]3C(=C(c4ccccc4)c4c(C)cc(C)n4[B-]3(F)F)C(C)=C2)cc1
In CO
  emission maximum: 574 nm

## Cn1c2ccc(S(=O)(=O)O)cc2c(=O)c2cc(S(=O)(=O)O)ccc21
In CS(C)=O
  emission maximum: 424 nm
In O
  emission maximum: 433 nm

## COc1cc2c(cc1-c1ccc(N(C)C)cc1)Cc1c3c(c4c(c1-2)-c1cc(OC)c(-c2ccc(N(C)C)cc2)cc1C4)C(=O)N(CCC(C)C)C3=O
In C1CCOC1
  emission maximum: 593 nm

## CC1=CC(C)=[N+]2C1=C(c1ccc(C)cc1)c1c(C)cc(/C=C/c3ccc4ccc5cccc6ccc3c4c56)n1[B-]2(F)F
In CC1CCCO1
  emission maximum: 618 nm

## COc1ccc(C#Cc2c3cc4ccccc4cc3c(C#C[Si](C(C)C)(C(C)C)C(C)C)c3cc4ccccc4cc23)cc1
In ClCCl
  emission maximum: 666 nm

## C[Si](C)(C)C#Cc1cccc2ccccc12
In C1CCCCC1
  emission maximum: 336 nm

## CC(C)(C)c1ccc2oc3nc4oc5ccc(N6c7ccccc7Sc7ccccc76)cc5c4cc3c2c1
In ClC(Cl)Cl
  emission maximum: 371 nm

## C(=C\c1ncnc2ccccc12)/c1ccc(N2CCCCC2)cc1
In C1CCCCC1
  emission maximum: 480 nm
In C1CCOC1
  emission maximum: 540 nm
In CC#N
  emission maximum: 579 nm
In CS(C)=O
  emission maximum: 589 nm
In ClCCl
  emission maximum: 558 nm

## Cc1ccc(C2CC(=O)Oc3c2c2nc4ccccc4nc2c2ccccc32)cc1 (stereo not drawn)
In ClC(Cl)Cl
  emission maximum: 440 nm

## C[N+]1=C(/C=C/C=C2/N(CCCS(=O)(=O)[O-])c3ccccc3C2(C)C)C(C)(C)c2ccccc21
In CS(C)=O
  emission maximum: 565 nm

## CCCCCCCCCCCCCCCCCCOc1ccc(C#Cc2cc3nc4c(OCCCCCCCCCCCC)cc5c6cc(OCCCCCCCCCCCC)c(OCCCCCCCCCCCC)cc6c6cc(OCCCCCCCCCCCC)c(OCCCCCCCCCCCC)cc6c5c4nc3cc2C#Cc2ccc(OCCCCCCCCCCCCCCCCCC)cc2)cc1
In ClC(Cl)Cl
  emission maximum: 660 nm

## O=C(O)c1ccccc1Nc1cccc(C(F)(F)F)c1
In C1CCCCC1
  emission maximum: 406 nm
In C1CCOC1
  emission maximum: 408 nm
In C1COCCO1
  emission maximum: 410 nm
In CC#N
  emission maximum: 426 nm
In CCOC(C)=O
  emission maximum: 410 nm
In CN(C)C=O
  emission maximum: 425 nm
In CO
  emission maximum: 428 nm
In ClC(Cl)Cl
  emission maximum: 426 nm

## COc1ccc(C2=N/C(=C\c3ccc(C#N)cc3)C(=O)N2)cc1OC
In C1COCCO1
  emission maximum: 482 nm

## CCCCN1c2ccccc2Sc2cc(/C=C\c3cc(=O)oc4ccc(C)cc34)ccc21
In ClC(Cl)Cl
  emission maximum: 635 nm

## Cc1ccc(-c2cnc3nn4ccccc4c3c2)cc1
In C1CCOC1
  emission maximum: 418 nm

## CN(C)c1ccc(C2=CC3=C(c4ccc(C=O)cc4)[C@H]4c5ccccc5[C@]3(S2)c2ccccc24)cc1
In ClCCl
  emission maximum: 616 nm

## c1ccc([B-]2(c3ccccc3)Oc3ccc4ccccc4c3-c3c4ccccc4cn[n+]32)cc1
In Cc1ccccc1
  emission maximum: 555 nm

## CN(C)c1ccc(-c2c(/C=C3/C=Cc4ccccc4N3Cc3ccccc3)c(=O)c2=O)cc1
In C1CCCCC1
  emission maximum: 427 nm
In Cc1ccccc1
  emission maximum: 435 nm
In ClCCl
  emission maximum: 586 nm

## COc1ccc(C2=Cc3c4ccccc4cc[n+]3[B-](F)(F)O2)cc1
In ClC(Cl)Cl
  emission maximum: 478.2 nm

## CCCCN(CCCC)c1ccc(C#Cc2cc(C#Cc3ccc([N+](=O)[O-])cc3)c(C#Cc3ccc(N(CCCC)CCCC)cc3)cc2C#Cc2ccc([N+](=O)[O-])cc2)cc1
In ClCCl
  emission maximum: 557 nm

## CCOC(=O)/N=c1/oc2cc(OC)cc(OC)c2cc1C#N
In ClCCl
  emission maximum: 442 nm

## COc1ccc2c(c1)C(=O)c1cc(OC)cc(OC)c1-2
In C1CCCCC1
  emission maximum: 570 nm
In CC#N
  emission maximum: 628 nm

## CCC1(CC)c2ccccc2-c2c1c1c(c3c2C(CC)(CC)c2cc(B(c4c(C)cc(C)cc4C)c4c(C)cc(C)cc4C)ccc2-3)C(CC)(CC)c2cc(B(c3c(C)cc(C)cc3C)c3c(C)cc(C)cc3C)ccc2-1
In C1CCOC1
  emission maximum: 387 nm
In CC#N
  emission maximum: 398 nm
In CC(C)=O
  emission maximum: 394 nm
In CCCCCC
  emission maximum: 378 nm
In ClC(Cl)Cl
  emission maximum: 387 nm

## OC1(c2ccc(-c3cccs3)s2)CCC1
In C1CCOC1
  emission maximum: 470 nm
In CC#N
  emission maximum: 460 nm
In CCCCCC
  emission maximum: 465 nm
In CCO
  emission maximum: 415 nm
In OCCOCCO
  emission maximum: 465 nm
In c1ccncc1
  emission maximum: 468 nm

## CO[B-]1(OC)n2c(C)cc(C)c2C(c2ccc(I)cc2)=C2C(C)=CC(C)=[N+]21
In ClC(Cl)Cl
  emission maximum: 517.6 nm

## C[Si]1(C)c2cc(C#Cc3ccccc3)ccc2C=Cc2ccc(C#Cc3ccccc3)cc21
In ClCCl
  emission maximum: 407 nm

## CC(C)(C)OC(=O)N1CCN(c2ccc3c(-c4ccc(I)cc4)c4ccc(=[N+]5CCN(C(=O)OC(C)(C)C)CC5)cc-4oc3c2)CC1
In ClCCl
  emission maximum: 585 nm

## CCN(CC)c1ccc2c(c1)oc(=O)c1cc3cnn(-c4ccccc4)c3nc12
In ClCCl
  emission maximum: 501 nm

## CCCN1c2ccccc2Sc2cc(/C=C\c3cc(=O)oc4cc(O)ccc34)ccc21
In ClC(Cl)Cl
  emission maximum: 631 nm

## C[N+]1=c2cc3c(cc2C(C)(C)CC1)=C(c1ccccc1C(=O)O)c1cc2c(cc1O3)Oc1cc3c(cc1=C2c1ccccc1C(=O)O)C(C)(C)CC[N+]=3C
In ClC(Cl)Cl
  emission maximum: 612 nm

## CC1=CC(C)=[N+]2C1=Cc1c3ccccc3c(C#Cc3ccc(F)cc3)n1[B-]2(F)F
In CCCCCC
  emission maximum: 615 nm
In CCCCCCCCO
  emission maximum: 623 nm
In CCOC(C)=O
  emission maximum: 617 nm
In CN(C)C=O
  emission maximum: 624 nm

## COc1ccc(C(=O)OCc2c(C)c(=O)n3c(=O)c(C)c(C)n23)cc1
In CCO
  emission maximum: 461 nm
